Results taken from patent US20250313563A1, “GLYCOGEN SYNTHASE KINASE 3 INHIBITORS AND USES THEREOF” (The Broad Institute, Inc., priority 2022, published 2025).

What was measured:
[1] = biological target: GSK3α (GST-full length GSK3α) (Homo sapiens (Human), UniProt P49840); test: GSK3α TR-FRET kinase assay; format: biochemical; conditions: read-out: GSK3-A (TR-FRET 1 mM ATP); GMean; IC50; 1 mM ATP; geometric mean
Outline: (§1)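 IC50 came from the normalized 665/615 nm TR-FRET ratio plotted against log compound concentration. The Tb-labelled pSer641 antibody and streptavidin-d2 detected phosphorylation of biotinylated S645-primed glycogen synthase peptide (200 nM) by 1 nM full-length GST-kinase. ATP was 4 μM for α, 2 μM for β, or 1 mM.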

[2] = biological target: GSK3b (GST-full length GSK3b) (Homo sapiens (Human), UniProt P49841); test: GSK3b TR-FRET kinase assay; format: biochemical; conditions: read-out: GSK3-B (TR-FRET 1 mM ATP); GMean; IC50; 1 mM ATP; geometric mean
Outline: as §1

[3] = Microsomal stability (MIC), human; format: in vitro ADME; conditions: human liver microsomes
Protocol: (§2) Stability of compound in liver microsomes was tested in duplicate by incubating compound at 1 μM for 60 minutes at 37° C. Compound level at 60 minutes was compared to level at 0 minutes, and percent remaining was calculated. Assay Parameters
(§3) Available species: human and mouse (CD-1). Compound requirements: 5 μL of a 10 mM DMSO solution. Incubation time: 60 minutes at 37° C. Test Concentration: 1 μM.
(§4) Microsomes with NADPH without compound-matrix interference. Microsomes plus compound without NADPH—non-enzymatic instability.

[4] = Microsomal stability (MIC), mouse; format: in vitro ADME, mouse (CD-1); conditions: mouse liver microsomes
Protocol: as §2, §3, §4

[5] = test system: MDR1-MDCK cell monolayers; test: MDR1/MDCK assay (blood-brain barrier penetration potential); format: in vitro ADME; conditions: 5 μM, pH 7.4, 120 minutes; for MDCK permeability (MDR1-MDCK); Mean; Papp (A − B): A to B; for MDCK permeability (MDR1-MDCK); Mean; Papp (B − A): B to A
Protocol: The MDR1/MDCK assay is run at Absorption Systems. This assay is used to determine the blood-brain barrier (BBB) penetration potential of a test compound using MDR1-MDCK cell monolayers. Catalog number EA203.
• Test compound at 5 μM in HBSSg with maximum DMSO concentration not greater than 1%.
• Confluent monolayers of MDR1-MDCK cells, 7 to 11 days old.
• Receiver well with 1% BSA in modified Hanks buffer (HBSSg) • Apical and basolateral side at pH 7.4 • Dose two monolayers in each direction (N=2) • Dose apical side for (A to B) assessment • Dose basolateral side for (B to A) assessment • Sample both apical and basolateral sides at 120 minutes • Determine the concentrations of test compound using a generic LC-MS/MS method with a minimum 4 point calibration curve.
• The quality of the cell monolayer batch is verified using control compounds before monolayers are released for use • The quality of each monolayer used in the assay is verified by a TEER measurement and by calculating the Papp for a control compound.

Sequence of GSK3α (GST-full length GSK3α) (P49840 whole entry): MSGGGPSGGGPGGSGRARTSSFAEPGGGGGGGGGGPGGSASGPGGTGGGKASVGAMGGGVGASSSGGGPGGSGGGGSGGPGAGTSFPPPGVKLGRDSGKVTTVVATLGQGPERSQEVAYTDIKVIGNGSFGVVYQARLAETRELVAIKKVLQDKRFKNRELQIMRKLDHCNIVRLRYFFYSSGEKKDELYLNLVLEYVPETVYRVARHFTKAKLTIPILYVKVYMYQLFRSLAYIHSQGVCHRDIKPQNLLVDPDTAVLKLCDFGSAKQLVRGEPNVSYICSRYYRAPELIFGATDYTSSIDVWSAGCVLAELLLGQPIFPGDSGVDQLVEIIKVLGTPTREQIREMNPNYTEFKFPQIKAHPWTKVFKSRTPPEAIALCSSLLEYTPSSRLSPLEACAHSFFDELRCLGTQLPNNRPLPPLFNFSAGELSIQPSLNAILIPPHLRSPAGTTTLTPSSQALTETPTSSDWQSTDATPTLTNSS
Sequence of GSK3b (GST-full length GSK3b) (P49841 whole entry): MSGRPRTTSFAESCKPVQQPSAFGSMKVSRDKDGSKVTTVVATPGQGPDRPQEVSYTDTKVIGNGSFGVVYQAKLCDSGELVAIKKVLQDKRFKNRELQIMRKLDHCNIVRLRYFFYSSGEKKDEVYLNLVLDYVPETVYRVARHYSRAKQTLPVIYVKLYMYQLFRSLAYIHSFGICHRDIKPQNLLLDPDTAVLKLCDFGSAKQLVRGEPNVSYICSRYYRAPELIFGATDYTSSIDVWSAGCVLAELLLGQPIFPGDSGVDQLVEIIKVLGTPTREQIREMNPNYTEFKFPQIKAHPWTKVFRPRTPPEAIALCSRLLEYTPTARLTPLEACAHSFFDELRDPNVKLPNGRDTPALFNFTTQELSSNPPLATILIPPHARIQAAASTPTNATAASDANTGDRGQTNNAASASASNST

IC50 [1] [nM]	IC50 [2] [nM]	Microsome stability (human); in vitro T1/2 [3] [min]	Microsome stability (mouse); in vitro T1/2 [4] [min]	MDCK permeability (MDR1-MDCK); Mean; Papp Ratio (B − A/A − B) (efflux ratio) [5]	MDCK permeability (MDR1-MDCK); Mean; Papp (A − B) [5]	MDCK permeability (MDR1-MDCK); Mean; Papp (B − A) [5]	SMILES
1000 to 5000	100 to 1000	1.4	0.5	42.3	1.65 10^−6 cm/s	70 10^−6 cm/s	CN1CC2(C3=C(CC(C)(C)CC3=O)Nc3n[nH]c(C4CC(F)(F)C4)c32)c2ccccc21 (stereo not shown) [Compound 119048]
1000 to 5000	100 to 1000	26.2	36	301	0.2 10^−6 cm/s	61.2 10^−6 cm/s	CC(C)(C)Cc1[nH]nc2c1C(C)(c1cc(S(C)(=O)=O)ccc1F)C1=C(CC(C)(C)CC1=O)N2 (stereo not shown) [Compound 125976]
1000 to 5000	100 to 1000	0.6	0.6	7.49	10.8 10^−6 cm/s	81.2 10^−6 cm/s	CN1CC2(C3=C(CC(C)(C)CC3=O)Nc3n[nH]c(CC(C)(C)C)c32)c2ccccc21 (stereo not shown) [Compound 125978]
1000 to 5000	100 to 1000			199	0.08 10^−6 cm/s	15.7 10^−6 cm/s	C[S+]([O-])c1cccc(C2(C)C3=C(CC(C)(C)CC3=O)Nc3n[nH]c(CC(C)(C)C)c32)c1 (stereo not shown) [Compound 126190]
1000 to 5000	100 to 1000			92.5	0.59 10^−6 cm/s	54.5 10^−6 cm/s	Cn1cc(-c2cccc(C3(C)C4=C(CC(C)(C)CC4=O)Nc4n[nH]c(CC(C)(C)C)c43)c2)cn1 (stereo not shown) [Compound 126393]
1000 to 5000	100 to 1000			8.9	6.48 10^−6 cm/s	57.6 10^−6 cm/s	CC(C)(C)Cc1[nH]nc2c1C(C)(c1cccc(S(=O)(=O)C(F)(F)F)c1)C1=C(CC(C)(C)CC1=O)N2 (stereo not shown) [Compound 126395]
1000 to 5000	≤ 100	104.9	>145				Cc1ccc(S(C)(=O)=O)cc1C1(C)C2=C(CC(C)(C)CC2=O)Nc2n[nH]c(CC(C)(C)C)c21 (stereo not shown) [Compound 126397]
1000 to 5000	100 to 1000			119	0.41 10^−6 cm/s	48.9 10^−6 cm/s	CC(C)(C)Cc1[nH]nc2c1C(C)(c1cccc(N3CCOCC3)c1)C1=C(CC(C)(C)CC1=O)N2 (stereo not shown) [Compound 126400]
1000 to 5000	100 to 1000	>145	74.5				CC1(C)CC(=O)C2=C(C1)Nc1n[nH]c(C3CC(F)(F)C3)c1C21COc2ccccc21 (stereo not shown) [Compound 127430]
